Laboratory results as given in US20240325404A1, “TREATMENT OF INFLAMMATORY DISEASES” (Galapagos NV, priority 2021, published 2024).
“Also recorded” adds a separate entry of the source.

Legend:
IFN-α/pSTAT3 pathway = assay: MDZ DDI study ex vivo IFN-α/pSTAT3 in CD4+ T-cells; conditions: 150 mg q.d., Day 6, ex vivo stimulation of whole blood
IL6/pSTAT3 pathway = assay: MDZ DDI study ex vivo IL6/pSTAT3 in CD4+ T-cells; conditions: 150 mg q.d., Day 6, ex vivo stimulation of whole blood
IFN-α/pSTAT1 pathway = assay: MDZ DDI study ex vivo IFN-α/pSTAT1 in CD4+ T-cells; conditions: 150 mg q.d., Day 6, ex vivo stimulation of whole blood
IL6/pSTAT1 pathway = assay: MDZ DDI study ex vivo IL6/pSTAT1 in CD4+ T-cells; conditions: 150 mg q.d., Day 6, ex vivo stimulation of whole blood
IL2/pSTAT5 pathway = assay: MDZ DDI study ex vivo IL2/pSTAT5 in CD4+ T-cells; conditions: 150 mg q.d., Day 6, ex vivo stimulation of whole blood
CYP3A4 = CYP3A4 (Homo sapiens, UniProt P08684); assay: clinical; conditions: in vivo
Method: On Days 1 and 7, single dose of 2 mg MDZ as commercially available liquid formulation, containing 2 mg/mL MDZ administered orally under fed conditions.

CYP3A4, sequence (P08684 whole entry): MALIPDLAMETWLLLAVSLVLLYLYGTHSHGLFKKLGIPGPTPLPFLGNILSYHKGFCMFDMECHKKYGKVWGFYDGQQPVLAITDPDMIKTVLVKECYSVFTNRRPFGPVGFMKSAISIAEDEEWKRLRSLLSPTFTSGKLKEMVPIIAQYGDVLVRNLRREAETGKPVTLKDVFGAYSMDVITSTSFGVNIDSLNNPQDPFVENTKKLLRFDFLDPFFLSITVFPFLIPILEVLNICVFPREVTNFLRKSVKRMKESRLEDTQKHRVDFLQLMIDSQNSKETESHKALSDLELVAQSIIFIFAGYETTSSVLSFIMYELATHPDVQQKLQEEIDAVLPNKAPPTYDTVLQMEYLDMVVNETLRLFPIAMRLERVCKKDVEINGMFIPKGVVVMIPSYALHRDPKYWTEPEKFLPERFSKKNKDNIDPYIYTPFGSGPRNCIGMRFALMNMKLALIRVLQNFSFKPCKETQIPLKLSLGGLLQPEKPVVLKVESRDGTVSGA

| Structure (SMILES) | effect on IFN-α/pSTAT3 pathway (IFN-α/pSTAT3 pathway) | effect on IL6/pSTAT3 pathway (IL6/pSTAT3 pathway) | effect on IFN-α/pSTAT1 pathway (IFN-α/pSTAT1 pathway) | effect on IL6/pSTAT1 pathway (IL6/pSTAT1 pathway) | effect on IL2/pSTAT5 pathway (IL2/pSTAT5 pathway) | AUC(0-inf) (CYP3A4) [ng·h/mL] | Cmax (CYP3A4) [ng/mL] | MDZ AUC0-∞ LS Geometric Mean Ratio (90% CI) (CYP3A4) | AUC(0-inf) (CYP3A4; po, 2 mg) [ng·h/mL] | Cmax (CYP3A4; po, 2 mg) [ng/mL] |
| --- | --- | --- | --- | --- | --- | --- | --- | --- | --- | --- |
| Cc1cc(C#N)ncc1Oc1cc(Nc2ccc(N3CCOCC3)nn2)c2ncn(C)c2n1 [Compound 1, 4-methyl-5-[3-methyl-7-[(6-morpholin-4-ylpyridazin-3-yl)amino]imidazo[4,5-b]pyridin-5-yl]oxypyridine-2-carbonitrile] | concentration-dependent inhibition | Day 1 and Day 6 values were similar; also recorded: no inhibition and no concentration-dependent effect | concentration-dependent inhibition | concentration-dependent inhibition | Day 1 and Day 6 values were similar; also recorded: no inhibition and no concentration-dependent effect |  |  |  |  |  |
| Cc1ncc2n1-c1ccc(Cl)cc1C(c1ccccc1F)=NC2 [MDZ, midazolam] |  |  |  |  |  | 27.9 | 6.24 | 121 (109; 133) % | 23.5 | 5.95 |
